Experimental findings from ChEMBL document CHEMBL1201862, “PubChem BioAssay data set” (2004) are described below.

Test systems include BT-549; COLO 205; DU-145; HCT-116; HOP-62; HT-29; KM12; M14; MDA-MB-435; NCI-H460; NCI-H522; OVCAR-5; RPMI-8226; SF-268; SN12C; SW-620; T47D; U-251; Malme-3M; NCI-H226.
Test in all cases: DTP human tumour cell line panel, 48 h

Structures are written as SMILES.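 Test compounds were applied to cells in 96-well plates for 48 hours at 5 doses. Here, GI50 denotes the concentration required for 50% inhibition of growth.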 Active and inactive are the calls of the source. Cut-off read from the data, not from the text of the source: active = GI50 up to about 1.1 µM and inactive = higher.

In the case of `C1CSCCSCCS1`, the GI50 with BT-549, in the experiment on COLO 205, in the experiment with DU-145, in the experiment on HCT-116, in the experiment with HOP-62 and with HT-29 was > 100 µM (inactive) throughout. The GI50 with KM12, with M14, with MDA-MB-435, in the experiment on NCI-H460, with NCI-H522 and in the experiment on OVCAR-5 was > 100 µM (inactive) in each case. For the same compound, the GI50 in the experiment with RPMI-8226, with SF-268, with SN12C, with SW-620, in the experiment on T47D and in the experiment with U-251 was > 100 µM (inactive) each time.

Take `CN(C)/C=N/C1CCC(C(C)(C)C)CC1` (stereo not drawn): the GI50 – broadly, the concentration giving 50% growth inhibition – is 18.5 µM (inactive) with BT-549; 17.3 µM (inactive) in the experiment with COLO 205; 24.9 µM (inactive) in the experiment on DU-145; 16 µM (inactive) in the experiment on HCT-116; 17.2 µM (inactive) in the experiment on HOP-62; 8.69 µM (inactive) in the experiment with HT-29. The GI50 in the experiment with M14 was 17.6 µM (inactive); in the experiment on MDA-MB-435, 18.7 µM (inactive); with Malme-3M, 18.4 µM (inactive); in the experiment with NCI-H226, 19.3 µM (inactive); with NCI-H460, 16.7 µM (inactive); in the experiment on NCI-H522, 16.6 µM (inactive). Also, the GI50 in the experiment with OVCAR-5 was 17.7 µM (inactive); with SF-268, 28.4 µM (inactive); in the experiment with SN12C it was 17.7 µM (inactive); in the experiment on SW-620 it was 16.9 µM (inactive); in the experiment with T47D, 16.4 µM (inactive); in the experiment with U-251 it was 16.1 µM (inactive).

For the compound `Cc1nnc2n(c1=O)CCCN2C`, the GI50 with BT-549, in the experiment with COLO 205, in the experiment with DU-145, with HCT-116, in the experiment on HOP-62 and in the experiment on HT-29 was > 100 µM (inactive) each time. The GI50 in the experiment on KM12, in the experiment with M14, in the experiment on MDA-MB-435, in the experiment on Malme-3M, in the experiment on NCI-H226 and in the experiment on NCI-H460 was > 100 µM (inactive) throughout. Also, the GI50 in the experiment with OVCAR-5, in the experiment with RPMI-8226, in the experiment on SF-268, in the experiment with SN12C, with SW-620 and in the experiment with T47D was > 100 µM (inactive) in each case. For the same compound, in the experiment with U-251, the GI50 was > 100 µM (inactive).

For the compound `CC(C)C(C)C(O)C(O)C(C)C1CCC2C3COC(=O)C4CC(O)C(O)CC4(C)C3CCC12C` (stereo not drawn), the GI50 in the experiment with BT-549 is 88.3 µM (inactive); with COLO 205 it was 94 µM (inactive); in the experiment on DU-145, > 100 µM (inactive); with HCT-116, > 100 µM (inactive); in the experiment on HT-29, 35.9 µM (inactive); in the experiment with KM12, 50.2 µM (inactive). The GI50 is > 100 µM (inactive) in the experiment with M14; > 100 µM (inactive) in the experiment with MDA-MB-435; > 100 µM (inactive) in the experiment with Malme-3M; 23.2 µM (inactive) with NCI-H226; 57.9 µM (inactive) in the experiment with NCI-H460; 55.2 µM (inactive) in the experiment on NCI-H522. The GI50 was > 100 µM (inactive) with OVCAR-5; 79.3 µM (inactive) with SF-268; 33.7 µM (inactive) in the experiment on SN12C; > 100 µM (inactive) in the experiment on SW-620; 40.9 µM (inactive) in the experiment on T47D; 62.5 µM (inactive) in the experiment with U-251.

As to `CCOP(=O)(CC1CC(O)(CNc2cc(Cl)nc(N)n2)C1)OCC` (stereo not drawn), the GI50 in the experiment with BT-549, in the experiment on COLO 205, in the experiment on DU-145, in the experiment with HCT-116, with HOP-62 and with HT-29 was > 100 µM (inactive) in each case. The GI50 in the experiment on KM12, in the experiment on MDA-MB-435, in the experiment on Malme-3M, in the experiment with NCI-H226, in the experiment with NCI-H460 and in the experiment with NCI-H522 was > 100 µM (inactive) each time. Moreover, the GI50 is > 100 µM (inactive) in the experiment with OVCAR-5; > 100 µM (inactive) in the experiment with RPMI-8226; > 100 µM (inactive) in the experiment with SF-268; > 100 µM (inactive) with SN12C; > 100 µM (inactive) in the experiment on SW-620; 98.9 µM (inactive) in the experiment with T47D. For the same compound, in the experiment on U-251, the GI50 was > 100 µM (inactive).

On to `Nc1ccc2c(O)cc(O)nc2n1`, for which the GI50 in the experiment with BT-549, in the experiment with COLO 205, with DU-145, with HCT-116, in the experiment on HT-29 and in the experiment on KM12 was > 100 µM (inactive) throughout. The GI50 in the experiment on M14 was > 100 µM (inactive); in the experiment on MDA-MB-435, > 100 µM (inactive); in the experiment with Malme-3M, 37.8 µM (inactive); with NCI-H226, > 100 µM (inactive); in the experiment with NCI-H460, > 100 µM (inactive); in the experiment with NCI-H522 it was > 100 µM (inactive). Besides, the GI50 in the experiment with OVCAR-5, with RPMI-8226, with SF-268, with SN12C, with SW-620 and with T47D was > 100 µM (inactive) in each case. The GI50 in the experiment on U-251 is > 100 µM (inactive).

With `CC1(C)[C@@H]2C[C@H]1[C@@H](Cc1cccc(C[C@H]3c4cc(-c5ccccn5)ncc4[C@H]4C[C@@H]3C4(C)C)c1)c1cc(-c3ccccn3)ncc12`, the GI50 in the experiment with BT-549 is > 100 µM (inactive); in the experiment with COLO 205, 2.93 µM (inactive); in the experiment on DU-145 it was 1.09 µM (active); in the experiment with HCT-116, 1.09 µM (active); in the experiment with HOP-62, 17.5 µM (inactive); in the experiment on HT-29, 3.17 µM (inactive). The GI50 with KM12 is 3.12 µM (inactive); with M14, 2.76 µM (inactive); in the experiment on MDA-MB-435 it was 2.96 µM (inactive); in the experiment with NCI-H226, 2.83 µM (inactive); with NCI-H460 it was 0.889 µM (active); with NCI-H522, 8.93 µM (inactive). For the same compound, the GI50 is > 72.4 µM (inactive) in the experiment with OVCAR-5; 1.47 µM (inactive) with RPMI-8226; 1.97 µM (inactive) in the experiment on SF-268; 5.68 µM (inactive) with SN12C; 8.45 µM (inactive) in the experiment with SW-620; 2.44 µM (inactive) in the experiment on T47D. Besides, in the experiment with U-251, the GI50 was 2.92 µM (inactive).

Consider `Cc1cccc(C)c1NC(=S)NC=C(C(N)=O)C(N)=O`, for which the GI50 in the experiment with BT-549, in the experiment with COLO 205, in the experiment with DU-145, in the experiment on HCT-116, in the experiment with HOP-62 and in the experiment with HT-29 was > 100 µM (inactive) throughout. Besides, the GI50 in the experiment with KM12, with M14, with MDA-MB-435, in the experiment on NCI-H226, with NCI-H460 and in the experiment on NCI-H522 was > 100 µM (inactive) throughout. For the same compound, the GI50 in the experiment on OVCAR-5, in the experiment with RPMI-8226, with SF-268, in the experiment with SN12C, in the experiment with SW-620 and in the experiment with T47D was > 100 µM (inactive) in each case. Besides, in the experiment on U-251, the GI50 was > 100 µM (inactive).

With `CC1=NN(c2cccc(Cl)c2)C2(SCC(=O)N2c2nc3ccccc3s2)/C1=C\c1cccs1` (stereo not drawn), the GI50 is 17.6 µM (inactive) in the experiment with BT-549; 46.5 µM (inactive) in the experiment with DU-145; 20.6 µM (inactive) in the experiment with HCT-116; 28.2 µM (inactive) in the experiment on HOP-62; 21.6 µM (inactive) in the experiment on HT-29; 25.8 µM (inactive) in the experiment on KM12. Moreover, the GI50 with M14 is 29.7 µM (inactive); with MDA-MB-435 it was 30.5 µM (inactive); in the experiment with NCI-H226, 20.3 µM (inactive); in the experiment on NCI-H460, 27.2 µM (inactive); in the experiment on NCI-H522 it was 21.2 µM (inactive); with OVCAR-5, 20.8 µM (inactive). For the same compound, the GI50 is 17.7 µM (inactive) in the experiment on RPMI-8226; 18.9 µM (inactive) in the experiment on SF-268; 34.3 µM (inactive) in the experiment on SW-620; 24.9 µM (inactive) with T47D; 20.3 µM (inactive) in the experiment with U-251.

Consider `COc1ccc(C2SC(=N)Nc3c2c(C)nn3C(=O)c2ccccc2O)cc1OC` (stereo not drawn), for which the GI50 is 8.91 µM (inactive) in the experiment with BT-549; > 10 µM (inactive) in the experiment with COLO 205; 4.3 µM (inactive) with DU-145; 2.37 µM (inactive) in the experiment on HCT-116; 6.92 µM (inactive) with HOP-62; > 10 µM (inactive) with HT-29. For the same compound, the GI50 is 6.55 µM (inactive) in the experiment on KM12; 7.11 µM (inactive) in the experiment on M14; 2.81 µM (inactive) with MDA-MB-435; 6.3 µM (inactive) in the experiment on Malme-3M; 4.32 µM (inactive) in the experiment on NCI-H226; 4.68 µM (inactive) with NCI-H460. The GI50 in the experiment with OVCAR-5 was > 10 µM (inactive); in the experiment on RPMI-8226, 6.28 µM (inactive); with SF-268, 5.32 µM (inactive); in the experiment with SN12C, 5.98 µM (inactive); in the experiment with SW-620, > 10 µM (inactive); in the experiment with T47D, 3.18 µM (inactive). Further, the GI50 in the experiment on U-251 was 4.5 µM (inactive).

For the compound `CC[C@]1(Cc2ccc(OC)c(OC)c2)C=[N+]([O-])O[C@H](OC2CCCC2(c2ccccc2)c2ccccc2)[C@@H]1OC(=O)C(C)(C)C` (stereo partly drawn), the GI50 is 4.38 µM (inactive) in the experiment with BT-549; 2.6 µM (inactive) in the experiment on COLO 205; 2 µM (inactive) in the experiment on DU-145; 1.98 µM (inactive) with HCT-116; 2.49 µM (inactive) with HOP-62; 1.86 µM (inactive) in the experiment with HT-29. The GI50 is 2.54 µM (inactive) in the experiment with KM12; 3.51 µM (inactive) in the experiment with M14; 2.03 µM (inactive) in the experiment on MDA-MB-435; 3.27 µM (inactive) in the experiment on NCI-H226; 2.69 µM (inactive) with NCI-H460; 1.61 µM (inactive) in the experiment with NCI-H522. Further, the GI50 in the experiment with OVCAR-5 was 8.71 µM (inactive); with SF-268, 3.15 µM (inactive); with SN12C it was 3.07 µM (inactive); in the experiment with SW-620 it was 10.1 µM (inactive); in the experiment on T47D it was 2.49 µM (inactive); in the experiment on U-251, 5.62 µM (inactive).
